In publication PMC11184559, “Identification and Validation of Compounds Targeting Leishmania major Leucyl-Aminopeptidase M17” (ACS Infectious Diseases, 2024):
“And” between values parts separate entries of the source, which are not always exact repeats. Identical values can stand only once.

Columns and labels:
[1] = target: rLmLAP (Leishmania major, UniProt Q7KF27); assay: RapidFire-MS aminopeptidase activity assay: inhibition of rLmLAP (LSTVIVR substrate); format: biochemical; settings: for IC50: RapidFire-MS, 5 nM enzyme, 10 μM LSTVIVR, 20 min preincubation, 0.195-100 μM, mean ± standard error (n = 3)
rLmLAP, sequence (Q7KF27 entry or part of it): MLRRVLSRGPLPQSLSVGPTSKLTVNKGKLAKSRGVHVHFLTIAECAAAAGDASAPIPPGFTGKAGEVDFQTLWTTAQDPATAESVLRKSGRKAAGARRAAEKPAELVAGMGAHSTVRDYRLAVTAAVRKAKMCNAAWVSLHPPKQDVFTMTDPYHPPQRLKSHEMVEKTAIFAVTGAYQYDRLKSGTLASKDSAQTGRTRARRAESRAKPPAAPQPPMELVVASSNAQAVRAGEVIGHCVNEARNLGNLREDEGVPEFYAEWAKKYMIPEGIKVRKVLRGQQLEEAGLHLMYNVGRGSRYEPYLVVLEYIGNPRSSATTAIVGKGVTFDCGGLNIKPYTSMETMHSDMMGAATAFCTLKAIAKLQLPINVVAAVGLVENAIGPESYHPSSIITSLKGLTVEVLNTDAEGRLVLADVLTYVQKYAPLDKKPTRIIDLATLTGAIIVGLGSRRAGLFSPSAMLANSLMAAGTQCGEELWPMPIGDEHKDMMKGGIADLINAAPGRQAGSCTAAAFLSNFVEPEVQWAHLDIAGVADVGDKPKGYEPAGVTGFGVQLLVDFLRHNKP
Method: Assays were carried out as previously described,[24] with some differences indicated below. The reaction mix consisted of 0 nM (control) and 30 nM rLmLAP in 1× PBS, pH 7.0, 0.005% (v/v) NP-40, plus 7.5 μL of LSTVIVR substrate peptide in the same buffer. For product quantification, the peak areas of the LSTVIVR peptide were integrated with respect to the internal standard LSTVIVR* peptide. The C-terminal arginine was chosen because this amino acid is amenable to isotopic labeling.[45]
rLmLAP was assayed at 5 nM with 10 μM (1× appKM) of LSTVIVR substrate peptide. The enzyme was preincubated with bestatin or DMSO for 20 min. Bestatin was prepared at 10 concentrations in DMSO, covering the range from 0.39 to 100 μM. […] The remaining experimental conditions were maintained, as described above.
A high-throughput screen was conducted against rLmLAP using 3,383 compounds with known protease inhibitor motifs. The compounds were dispensed onto plates using an ECHO 550 acoustic dispenser (Labcyte, Sunnyvale, CA). The enzyme was assayed at 5 nM with 10 μM (1× appKM) LSTVIVR substrate for 60 min. Before adding the substrate, the enzyme was preincubated with 45 nL of the compounds or DMSO for 20 min. Compounds, dissolved in DMSO, were tested at 30 μM. […] No replicates were performed for each inhibitor in this experiment. The remaining experimental conditions were kept constant as described above. The ActivityBase program from IDBS provider (https://www.idbs.com) was used to process and analyze the data. Selection criteria for potential inhibitors in this screen required an inhibition percentage greater than the mean (calculated from the inhibition percentages of all the inhibitors) plus three standard deviations (SD). All compounds were purchased commercially and are >95% pure by HPLC.
To obtain IC50 data for screen-detected rLmLAP inhibitors at a single concentration, ten-point concentration–response curves were generated for selected inhibitors showing greater than mean ±3 SD inhibition. The curves were prepared in 384-well plates with a maximum concentration of 100 μM and 1:2 serial dilutions in DMSO (0.195–100 μM) using an ECHO 550 acoustic dispenser. All other experimental conditions were as described above for RapidFire-MS optimization. Three replicates of each concentration of inhibitor were evaluated. The IC50 value was calculated by nonlinear fitting of a four-parameter logistic function to the experimental data. Curve fitting and IC50 calculations were performed using IDBS ActivityBase XE version 9.2.0.106. Inhibitory activity was determined using the peak area ratio, calculated as the reaction product (STVIVR) divided by its internal standard (*LSTVIVR). The peak area ratio of the reaction without enzyme was defined as 100% inhibitory activity, and that of the complete reaction mixture was defined as 0% inhibitory activity. At least three replicates were generated for each hit compound.

[2] = system: L. donovani intracellular amastigotes; assay: Leishmania donovani intracellular (intramacrophage) assay, single concentration; format: cell-based; settings: Leishmania donovani, Macrophage, 96 h, intracellular amastigotes in macrophages, Hoechst imaging, read-out: Inhibition of L. donovani proliferation (%)
Method: The effect of the compounds selected as inhibitors of rLmLAP on the proliferation of L. donovani amastigotes was evaluated at a concentration of 50 μM. Macrophage cultures (ECACC, catalog number: 88081201) were used as host cells. Parasites were incubated with 4.27× 10^7 macrophages, at a multiplicity of infection (MOI) of 5, at 37 °C with 5% CO2, overnight in DMEM medium supplemented with 4.5 g/L glucose and glutamine and 10% FBS, in a Millicell HY T-600 three-layer culture flask (Merck Millipore, Solna, Sweden). […] Macrophages were incubated for another 24 h in the above conditions with 133 μL of fresh DMEM medium prewarmed at 37 °C and supplemented with 10% FBS to obtain a high count of intracellular amastigotes.
Forty-two hours after macrophage infection, compounds (50 μM, 250 nL in DMSO) were dispensed using LabCyte ECHO into each well of 384-well dark flat bottom plates (Corning, New York, USA). The plates were incubated at 37 °C, 5% CO2, for 4 h (without compounds, with DMSO, to determine the initial level of infection) and for 96 h (with and without compounds).

Row | SMILES | IC50 [1] | inhibition at 50 µM [2] [%] | inhibition at 30 µM ([1]; single-point high-throughput screen at 30 μM, read-out: Inhibition of rLmLAP in the screening) [%]
1 | N#CC(=Cc1cn(Cc2ccc(C(=O)O)o2)c2ccccc12)c1nc2ccccc2[nH]1 [DDD00092640] | 20.2 ± 1.1 µM | 0 | 
2 | Cc1ccc(C(=O)O)cc1S(=O)(=O)Nc1cccc(C2SCCS2)c1 [DDD00096698] | 50 ± 4 µM | 0 | ~65
3 | COc1ccc(S(=O)(=O)N2Cc3ccccc3CC2C(=O)O)cc1 (stereo not shown) [DDD00095849] | 60 ± 5 µM | 12.7 ± 1.5 | 
4 | N#CC(=Cc1cn(Cc2ccc(C(=O)O)o2)c2ccccc12)c1ccc(F)cc1 [DDD00092624] | 35.2 ± 3.2 µM | 7 ± 1 | 
5 | O=C(O)c1ccc(-c2nccs2)s1 [DDD00097905] | 37.1 ± 3.3 µM | 0 | 
6 | CS(=O)(=O)Nc1cc2ccccc2cc1C(=O)O [DDD00095117] | 19 ± 1 µM | 0 | 
7 | Cc1cc(C(=O)N(Cc2ccco2)Cc2cc3ccc(Cl)cc3nc2N2CCCC2)n(C)n1 [DDD00092594] | 36.3 ± 3.3 µM | 19.9 ± 1.3 | 
8 | CC(C)C[C@H](NC(=O)[C@@H](O)[C@H](N)Cc1ccccc1)C(=O)O [Bestatin, reference compound] | 6 µM and 6.1 µM |  | 
